Reference: patent US20250154169A1, “COMPOUNDS AND METHODS FOR MODULATING SPLICING” (REMIX THERAPEUTICS INC., priority 2021, published 2025)
Where a name gives a salt, the structure may show the parent alone. Read-outs that look alike come from different tables or passages of the source.

What was measured:
Type in all cases: cell-based, human
[1] = system: HTT mRNA; experiment: Splicing RT-qPCR assay, HTT canonical (CJ) and alternative (AJ) junction mRNA; details: Homo sapiens, A673 or K562 cells, 24 hours compound treatment; for IC50: 24 h, read-out: HTT CJ (IC50, decrease in canonical junction mRNA); for AC50: read-out: HTT AJ (AC50, increase in alternative junction mRNA)
In short: (§1)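 Canonical (CJ) and alternative-exon (AJ) junction mRNAs quantified by one-step RT-qPCR in cell lysates, normalized to housekeeping PPIA for A673 and GAPDH or GUSB for K562. Cells were exposed 24 h at 37 °C to 11-point 3-fold compound series from 10 uM final, with DMSO at or below 0.25%.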

[2] = system: HTT mRNA; experiment: Splicing RT-qPCR gene panel, HTT canonical junction (CJ) mRNA; details: Homo sapiens, Tables 4A/4B, read-out: HTT (IC50, decrease in CJ mRNA, gene panel)
In short: (§2)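 A673/K562, 24 h cpd, 11-pt 3-fold from 10 uM, DMSO ≤0.25%. Lysis, direct RT-qPCR of CJ isoform, ≥duplicate. GAPDH/GUSB/PPIA norm, ΔΔCt vs DMSO → RQ → % response.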

[3] = system: SMN2 mRNA; experiment: Splicing RT-qPCR gene panel, SMN2 canonical junction (CJ) mRNA; details: Homo sapiens, Tables 4A/4B, read-out: SMN2 (IC50, decrease in CJ mRNA, gene panel)
In short: as §2

[4] = system: Target C mRNA; experiment: Splicing RT-qPCR gene panel, Target C canonical junction (CJ) mRNA; details: Homo sapiens, Tables 4A/4B, read-out: Target C (IC50, decrease in CJ mRNA, gene panel)
In short: as §2

[5] = system: MYB mRNA; experiment: Splicing RT-qPCR assay, MYB canonical (CJ) and alternative (AJ) junction mRNA; details: Homo sapiens; for AC50: read-out: MYB AJ (AC50, increase in alternative junction mRNA)
In short: as §1

[6] = 24 h, A673 or K562 cells, 24 hours compound treatment, RT-qPCR
[7] = 24 h, A673 or K562 cells, 24 hours compound treatment, RT-qPCR, read-out: MYB CJ (IC50, decrease in canonical junction mRNA)
[8] = Tables 4A/4B, canonical junction qPCR panel, read-out: MYB (IC50, decrease in CJ mRNA, gene panel)

Row | Compound | IC50 [1] | IC50 [2] | IC50 [3] | IC50 [4] | IC50 [5, 7] | IC50 [5, 8] | AC50 [1] | AC50 [5, 6]
1 | CNC1CCN(c2ccc(C(=O)Nc3cc(F)c4nc(C)cn4c3)c3nn(C)cc23)C1 (stereo not drawn) [Compound 298, N-{8-fluoro-2-methylimidazo[1,2-a]pyridin-6-yl}-2-methyl-4-[3-(methylamino)pyrrolidin-1-yl]indazole-7-carboxamide trifluoroacetic acid salt] | 1000 to 10000 nM | 1000 to 10000 nM | < 100 nM | 1000 to 10000 nM | < 100 nM | < 100 nM | 1000 to 10000 nM | 100 to 1000 nM
2 | Cc1cn2cc(NC(=O)c3ccc(N4CCC5(CCN5)C4)c4cn(C)nc34)cc(F)c2n1 (stereo not drawn) [Compound 299, 4-{1,6-diazaspiro[3.4]octan-6-yl}-N-{8-fluoro-2-methylimidazo[1,2-a]pyridin-6-yl}-2-methylindazole-7-carboxamide] | > 10000 nM | > 10000 nM | < 100 nM | > 10000 nM | 100 to 1000 nM | 100 to 1000 nM | > 10000 nM | 100 to 1000 nM
3 | Cc1cn2cc(NC(=O)c3ccc(N4CCC5(CCN5)CC4)c4cn(C)nc34)cc(F)c2n1 [Compound 301, 4-{1,7-diazaspiro[3.5]nonan-7-yl}-N-{8-fluoro-2-methylimidazo[1,2-a]pyridin-6-yl}-2-methylindazole-7-carboxamide trifluoroacetic acid salt] | 100 to 1000 nM | 100 to 1000 nM | < 100 nM | 1000 to 10000 nM | < 100 nM | < 100 nM | 100 to 1000 nM | < 100 nM
4 | Cc1cn2cc(NC(=O)c3ccc(N4CCNCC4)c4cn(C5CCOCC5)nc34)cc(F)c2n1 [Compound 304, N-{8-fluoro-2-methylimidazo[1,2-a]pyridin-6-yl}-2-(oxan-4-yl)-4-(piperazin-1-yl) indazole-7-carboxamide trifluoroacetic acid salt] | 1000 to 10000 nM | 1000 to 10000 nM | < 100 nM | > 10000 nM | 100 to 1000 nM | 100 to 1000 nM | > 10000 nM | 100 to 1000 nM
5 | COCCn1cc2c(N3C[C@@H](C)N[C@@H](C)C3)ccc(C(=O)Nc3cc(F)c4nc(C)cn4c3)c2n1 [Compound 306, 4-[(3R,5S)-3,5-dimethylpiperazin-1-yl]-N-{8-fluoro-2-methylimidazo[1,2-a]pyridin-6-yl}-2-(2-methoxyethyl) indazole-7-carboxamide] | 1000 to 10000 nM | 1000 to 10000 nM | < 100 nM | > 10000 nM | 100 to 1000 nM | 100 to 1000 nM | 1000 to 10000 nM | < 100 nM
6 | CCNC1CCN(c2ccc(C(=O)Nc3cc(F)c4nc(C)cn4c3)c3nn(CCOC)cc23)CC1 [Compound 307, 4-[4-(ethylamino)piperidin-1-yl]-N-{8-fluoro-2-methylimidazo[1,2-a]pyridin-6-yl}-2-(2-methoxyethyl) indazole-7-carboxamide] | 1000 to 10000 nM | 1000 to 10000 nM | < 100 nM | > 10000 nM | 100 to 1000 nM | 100 to 1000 nM | 1000 to 10000 nM | 100 to 1000 nM
7 | Cc1cn2cc(NC(=O)c3ccc(N4CCNCC4)c4cn(CC5(C)COC5)nc34)cc(F)c2n1 [Compound 308, N-{8-fluoro-2-methylimidazo[1,2-a]pyridin-6-yl}-2-[(3-methyloxetan-3-yl)methyl]-4-(piperazin-1-yl)indazole-7-carboxamide] | > 10000 nM | > 10000 nM | > 10000 nM | > 10000 nM | > 10000 nM | > 10000 nM | > 10000 nM | > 10000 nM
8 | Cc1cn2cc(NC(=O)c3ccc(N4CCNCC4)c4cn(CC(=O)N(C)C)nc34)cc(F)c2n1 [Compound 309, 2-[(dimethylcarbamoyl)methyl]-N-{8-fluoro-2-methylimidazo[1,2-a]pyridin-6-yl}-4-(piperazin-1-yl)indazole-7-carboxamide] | > 10000 nM | > 10000 nM | 1000 to 10000 nM | > 10000 nM | 1000 to 10000 nM | 1000 to 10000 nM | > 10000 nM | > 10000 nM
9 | CCNC1CCN(c2ccc(C(=O)Nc3cc(F)c4nc(C)cn4c3)c3nn(CCOC)cc23)C1 (stereo not drawn) [Compound 310, 4-(3-(ethylamino)pyrrolidin-1-yl)-N-(8-fluoro-2-methylimidazo[1,2-a]pyridin-6-yl)-2-(2-methoxyethyl)-2H-indazole-7-carboxamide] | 1000 to 10000 nM | 1000 to 10000 nM | < 100 nM | > 10000 nM | < 100 nM | < 100 nM | 1000 to 10000 nM | < 100 nM
10 | Cc1cn2cc(NC(=O)c3ccc(N4CCNCC4)c4cn(Cc5ccncc5)nc34)cc(F)c2n1 [Compound 313, N-{8-fluoro-2-methylimidazo[1,2-a]pyridin-6-yl}-4-(piperazin-1-yl)-2-(pyridin-4-ylmethyl)indazole-7-carboxamide] | > 10000 nM | > 10000 nM | 100 to 1000 nM | 1000 to 10000 nM | 1000 to 10000 nM | 1000 to 10000 nM | > 10000 nM | 1000 to 10000 nM

Second part, led by results:

Row | IC50 [1] | IC50 [2] | IC50 [3] | IC50 [4] | IC50 [5, 7] | IC50 [5, 8] | Compound | AC50 [1] | AC50 [5, 6]
11 | 1000 to 10000 nM | 1000 to 10000 nM | 100 to 1000 nM | 1000 to 10000 nM | 1000 to 10000 nM | 1000 to 10000 nM | Cc1cn2cc(NC(=O)c3ccc(N4CCNCC4)c4c(C)n(C)nc34)cc(F)c2n1 [Compound 297] | 1000 to 10000 nM | 1000 to 10000 nM
12 | > 10000 nM | > 10000 nM | 100 to 1000 nM | > 10000 nM | 1000 to 10000 nM | 1000 to 10000 nM | Cc1cn2cc(NC(=O)c3cc(C)c(N4CCNCC4)c4cn(C)nc34)cc(F)c2n1 [Compound 300] | > 10000 nM | 100 to 1000 nM
13 | 1000 to 10000 nM | 1000 to 10000 nM | < 100 nM | > 10000 nM | < 100 nM | < 100 nM | COCCCn1cc2c(N3CCNCC3)ccc(C(=O)Nc3cc(F)c4nc(C)cn4c3)c2n1 [Compound 302, N-{8-fluoro-2-methylimidazo[1,2-a]pyridin-6-yl}-2-(3-methoxypropyl)-4-(piperazin-1-yl)indazole-7-carboxamide] | 1000 to 10000 nM | < 100 nM
14 | 1000 to 10000 nM | 1000 to 10000 nM | < 100 nM | > 10000 nM | 100 to 1000 nM | 100 to 1000 nM | Cc1cn2cc(NC(=O)c3cc(F)c(N4CCNCC4)c4cn(C)nc34)cc(F)c2n1 [Compound 303, 5-fluoro-N-{8-fluoro-2-methylimidazo[1,2-a]pyridin-6-yl}-2-methyl-4-(piperazin-1-yl)indazole-7-carboxamide] | 1000 to 10000 nM | 100 to 1000 nM
15 | 1000 to 10000 nM | 1000 to 10000 nM | < 100 nM | > 10000 nM | 100 to 1000 nM | 100 to 1000 nM | Cc1cn2cc(NC(=O)c3ccc(N4CCNCC4)c4cn(CCF)nc34)cc(F)c2n1 [Compound 305, N-{8-fluoro-2-methylimidazo[1,2-a]pyridin-6-yl}-2-(2-fluoroethyl)-4-(piperazin-1-yl)indazole-7-carboxamide] | 1000 to 10000 nM | 100 to 1000 nM
16 | > 10000 nM | > 10000 nM | < 100 nM | > 10000 nM | 100 to 1000 nM | 100 to 1000 nM | COc1cc(C(=O)Nc2cc(F)c3nc(C)cn3c2)c2nn(C)cc2c1N1CCNCC1 [Compound 311, N-{8-fluoro-2-methylimidazo[1,2-a]pyridin-6-yl}-5-methoxy-2-methyl-4-(piperazin-1-yl)indazole-7-carboxamide] | > 10000 nM | 1000 to 10000 nM
17 | 1000 to 10000 nM | 1000 to 10000 nM | < 100 nM | 1000 to 10000 nM | 100 to 1000 nM | 100 to 1000 nM | CCCCn1cc2c(N3CCNCC3)ccc(C(=O)Nc3cc(F)c4nc(C)cn4c3)c2n1 [Compound 312, 2-butyl-N-{8-fluoro-2-methylimidazo[1,2-a]pyridin-6-yl}-4-(piperazin-1-yl)indazole-7-carboxamide] | 1000 to 10000 nM | < 100 nM
18 | 1000 to 10000 nM | 1000 to 10000 nM | < 100 nM | > 10000 nM | < 100 nM | < 100 nM | Cc1cn2cc(NC(=O)c3ccc(N4CCNCC4)c4cn(C)nc34)cc(C#N)c2n1 [Compound 314, N-{8-cyano-2-methylimidazo[1,2-a]pyridin-6-yl}-2-methyl-4-(piperazin-1-yl) indazole-7-carboxamide hydrochloride] | 1000 to 10000 nM | < 100 nM
